pEC50: −log10 of the molar value. Positions of bridges follow the written chain, without caps; N, C: chain ends. Residues, ends and D or L forms follow the SMILES beside them.
Columns and labels:
Staphylococcus aureus = experiment: Antibacterial activity against Staphylococcus aureus ATCC 29213 incubated for 5 hrs; format: functional, organism-based; conditions: ATCC 29213, 5 h
Escherichia coli = experiment: Antibacterial activity against Escherichia coli ATCC 25922 incubated for 5 hrs; format: functional, organism-based; conditions: ATCC 25922, 5 h
Pseudomonas aeruginosa = experiment: Antibacterial activity against Pseudomonas aeruginosa ATCC 27853 incubated for 5 hrs; format: functional, organism-based; conditions: ATCC 27853, 5 h
Candida albicans = experiment: Antifungal activity against Candida albicans ATCC 90028 incubated for 5 hrs; format: functional, organism-based; conditions: ATCC 90028, 5 h
[1] = tested on: Pectobacterium carotovorum; experiment: Antibacterial activity against Erwinia carotovora incubated for 5 hrs; format: functional, organism-based
Erwinia amylovora = experiment: Antibacterial activity against Erwinia amylovora incubated for 5 hrs; format: functional, organism-based
Aspergillus fumigatus = experiment: Antifungal activity against Aspergillus fumigatus incubated for 5 hrs; format: functional, organism-based
[2] = Cytotoxicity against human U937/GTB cells up to 50 uM by fluorescein diacetate-based fluorometric microculture cytotoxicity assay; format: cell-based; conditions: u-937/gtb
[3] = Stability in human serum assessed as compound remaining after 24 hrs at 37 degC by LC/MS analysis; format: ADME; conditions: read-out: Stability

With `CSCC[C@@H]1NC(=O)[C@H](C(C)C)NC(=O)[C@H](CC(C)C)NC(=O)[C@@H]2CSSC[C@@H](C(=O)N[C@@H](CO)C(=O)O)NC(=O)[C@H](Cc3ccccc3)NC(=O)[C@H](CCCCN)NC(=O)[C@H](C(C)C)NC(=O)[C@H](CSSC[C@H](NC(=O)[C@H](CCCNC(=N)N)NC(=O)[C@H](C)N)C(=O)N2)NC(=O)[C@H](C)NC(=O)[C@H](Cc2ccccc2)NC(=O)[C@@H]2CCCN2C(=O)[C@@H]2CCCN2C(=O)[C@H](C(C)C)NC(=O)[C@@H]2CCCN2C1=O` (H-ARCCLVMPVPPFACVKFCS-OH; disulfide 3-14, 4-18) as the compound, how does the pEC50 (Staphylococcus aureus) read?
The pEC50 was under 3.80.

And the pEC50 (Escherichia coli)?
The pEC50 was under 3.80.

What about the pEC50 (Pseudomonas aeruginosa) of the same compound?
The pEC50 was 4.57.

What about the pEC50 (Candida albicans) of the same compound?
Its pEC50 is under 3.80.

What about the pEC50 [1] of the same compound?
The pEC50 was under 3.80.

What about the pEC50 (Erwinia amylovora) of the same compound?
The pEC50 was under 3.80.

And the pEC50 (Aspergillus fumigatus)?
Its pEC50 is under 3.80.

And the Activity [2]?
Its Activity is “Non-toxic”.

What about the remaining at 24 h [3] of the same compound?
Its remaining at 24 h is over 95%.

Source: ChEMBL document CHEMBL3739393, “Synthesis, Structural Characterization, and Bioactivity of the Stable Peptide RCB-1 from Ricinus communis” (J Nat Prod, 2015)
